Data on two compounds can be found in US8158587B2, “Compound having histone deacetylase-inhibiting activity, and pharmaceutical composition comprising the compound as an active ingredient” (Kyushu Institute of Technology, priority 2006, dated 2012).

One assay has as its target T1, human HDAC1 (Homo sapiens, UniProt Q13547).
T1 construct: made in house; host or cells: 293T cells (transient transfection, anti-FLAG immunoprecipitation, FLAG peptide elution)
As to the kind of experiment: HDAC-inhibiting activity, coumarin-labeled acetylated histone peptide assay. The class given is biochemical. As to conditions: human HDAC1 from transfected 293T cells; 37° C., 30 minutes. Here is the method: (§1) In carrying out HDAC-inhibiting activity measurements, HDAC solutions were prepared in the following manner. In each 100-mm dish, there were sowed 1×10^7 293T cells and, after 24 hours, they were transfected with a vector (5 μg) expressing human HDAC1 or HDAC4 or murine HDAC6 using the LipofectAmine 2000 reagent (Invitrogen). The human HDAC1 expression vector used was pcDNA3-HD1 (Yang, W. M., Yao, Y. L., Sun, J. M., Davie, J. R. & Seto, E. (1997) J. Biol. Chem. 272, 28001-28007), the human HDAC4 expression vector used was pcDNA3-HD4 (Fischle, W., Emiliani, S., Hendzel, M. J., Nagase, T., Nomura, N., Voelter, W. & Verdin, E. (1999) J. Biol. Chem. 274, 11713-11720), and the murine HDAC6 expression vector used was pcDNA3-mHDA2/HDAC6 (Verdel, A. & Khochbin, S. (1999) J. Biol. Chem. 274, 2440-2445).
(§2) After 24 hours of incubation, cells were recovered, washed with PBS, suspended in lysis buffer (50 mM Tris-HCl (pH 7.5), 120 mM NaCl, 5 mM EDTA, 0.5% Nonidet P-40), and sonicated. The supernatant was collected by centrifugation and then deprived of nonspecific proteins using Protein A/G plus agarose beads (Santa Cruz Biotechnologies, Inc.). Thereafter, anti-FLAG M2 antibody (Sigma-Aldrich Inc.) was added, and the reaction was allowed to proceed at 4° C. for 2 hours.
(§3) To this were added agarose beads, the reaction was allowed to proceed at 4° C. for 3 hours, and the agarose beads were washed three times with lysis buffer and then once with HD buffer (20 mM Tris-HCl (pH 8.0), 150 mM NaCl, 10% glycerol). The protein bound to the agarose beads was recovered by 1 hour of incubation with FLAG peptide (40 μg) (Sigma-Aldrich Inc.) in HD buffer (200 μl) at 4° C., and the liquid recovered was used, as a reactant solution, in the HDAC-inhibiting activity measurement described below.
(§4) HDAC-inhibiting activity evaluation in each in vitro system was made as follows. Each test compound was dissolved in DMSO, a stock solution with a concentration of 10 mM was thus prepared and this was used as an inhibitor stock solution. The assay was carried out by incubating the HDAC solution and a coumarin-labeled acetylated histone peptide solution in the presence of the test compound at 37° C. for 30 minutes (reaction volume 20 μl). To the reaction mixture was added 30 μl of trypsin, and the aminomethylcoumarin released by the enzymatic reaction was assayed using a fluorescent plate reader. In a negative control assay, no inhibitor was added to the reaction system and the same procedure was carried out.

Another assay addresses T2, murine HDAC6 (Mus musculus, UniProt Q9Z2V5).
T2 construct: made in house; host or cells: 293T cells (transient transfection, anti-FLAG immunoprecipitation, FLAG peptide elution)
T2 sequence (Q9Z2V5 1-1149): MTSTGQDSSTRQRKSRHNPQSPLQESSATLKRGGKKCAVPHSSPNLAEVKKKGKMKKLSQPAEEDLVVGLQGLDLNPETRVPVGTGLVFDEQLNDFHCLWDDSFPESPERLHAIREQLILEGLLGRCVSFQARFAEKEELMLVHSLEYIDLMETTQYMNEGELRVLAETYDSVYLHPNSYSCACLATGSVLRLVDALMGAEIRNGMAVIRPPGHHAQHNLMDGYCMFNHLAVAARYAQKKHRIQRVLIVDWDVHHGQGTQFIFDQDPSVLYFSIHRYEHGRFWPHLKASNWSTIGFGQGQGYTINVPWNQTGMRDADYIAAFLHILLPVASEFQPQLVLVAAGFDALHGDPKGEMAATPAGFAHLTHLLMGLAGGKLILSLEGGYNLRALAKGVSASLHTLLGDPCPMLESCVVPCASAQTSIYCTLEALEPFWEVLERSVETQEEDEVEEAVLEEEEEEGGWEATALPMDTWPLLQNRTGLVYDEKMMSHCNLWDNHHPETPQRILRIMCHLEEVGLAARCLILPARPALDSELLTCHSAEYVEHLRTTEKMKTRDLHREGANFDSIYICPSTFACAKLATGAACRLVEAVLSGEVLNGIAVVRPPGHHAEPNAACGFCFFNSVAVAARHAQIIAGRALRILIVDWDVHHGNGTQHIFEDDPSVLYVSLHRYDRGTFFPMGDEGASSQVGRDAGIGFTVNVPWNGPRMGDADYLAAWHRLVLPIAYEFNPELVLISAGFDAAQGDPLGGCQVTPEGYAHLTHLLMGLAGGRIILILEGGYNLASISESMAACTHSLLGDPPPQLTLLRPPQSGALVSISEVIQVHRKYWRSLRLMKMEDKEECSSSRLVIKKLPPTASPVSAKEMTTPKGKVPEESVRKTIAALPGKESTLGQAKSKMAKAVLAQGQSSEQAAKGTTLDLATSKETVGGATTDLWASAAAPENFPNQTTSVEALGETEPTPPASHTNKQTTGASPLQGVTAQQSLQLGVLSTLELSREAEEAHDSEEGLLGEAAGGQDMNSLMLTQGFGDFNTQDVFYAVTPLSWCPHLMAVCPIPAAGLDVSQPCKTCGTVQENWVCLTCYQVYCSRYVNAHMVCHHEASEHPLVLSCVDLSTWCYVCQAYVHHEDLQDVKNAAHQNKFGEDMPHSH
The description is as above. It is filed as biochemical. Particulars: murine HDAC6 from transfected 293T cells; 37° C., 30 minutes. On the procedure: as §1, §2, §3, §4

Assay [1] deals with brain tumor cell line SF-268. Description: Human cancer cell line panel, proliferation (sulforhodamine B). Particulars: SF-268, 2 days of cultivation; read-out: 50% inhibitory concentration, proliferation. It is filed as cell-based.

The structures appear in SMILES notation.

T1 sequence (Q13547 whole entry): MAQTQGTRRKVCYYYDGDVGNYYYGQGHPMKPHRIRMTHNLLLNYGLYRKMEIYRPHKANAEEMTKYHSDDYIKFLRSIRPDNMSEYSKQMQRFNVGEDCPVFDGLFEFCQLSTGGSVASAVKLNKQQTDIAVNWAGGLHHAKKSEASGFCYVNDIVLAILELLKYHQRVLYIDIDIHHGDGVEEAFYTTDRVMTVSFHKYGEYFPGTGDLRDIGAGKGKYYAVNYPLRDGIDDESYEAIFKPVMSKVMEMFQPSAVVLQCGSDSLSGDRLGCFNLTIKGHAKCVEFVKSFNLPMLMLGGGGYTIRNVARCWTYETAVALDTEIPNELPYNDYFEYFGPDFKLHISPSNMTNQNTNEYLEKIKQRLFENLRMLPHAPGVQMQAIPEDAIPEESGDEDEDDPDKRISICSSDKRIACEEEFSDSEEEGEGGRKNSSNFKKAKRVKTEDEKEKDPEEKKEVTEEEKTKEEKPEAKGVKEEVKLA

`CC1(C)NC(=O)[C@H](CCCCCSCc2ccncc2)NC(=O)[C@H]2CCCN2C(=O)[C@H](Cc2ccccc2)NC1=O` [Ky-26, cyclo(-L-Am7(4-pyridylmethyl)-Aib-L-Phe-D-Pro-)]: the IC50 against human HDAC1 turned out to be 50 nM; against murine HDAC6 it was 1400 nM.

Regarding `CC(=O)CSCCCCC[C@@H]1NC(=O)[C@H]2CCCN2C(=O)[C@H](Cc2ccccc2)NC(=O)C(C)(C)NC1=O` [Ky-72, cyclo(-L-Am7(acetonyl)-Aib-L-Phe-D-Pro-)], in assay [1], the IC50 is ≤ 100 nM.
